Reference: US5246945A, “Piperidine derivatives” (Nisshin Flour Milling Co., Ltd., priority 1991, dated 1993)

Tested on: 5-HT3 receptors
Test: Antagonism of 5-HT at 5-HT3 receptors: inhibition of 5-HT-induced bradycardia (von Benzold Jarisch Reflex) in anesthesized rats
Assay type: in vivo, rat
Settings: 100 μg/kg, i.v. (intrajugular); 5-HT 30 μg/kg given 5 min. later; urethane-anesthesized rats; tested as hydrochloride except Example 9
Protocol: The compounds prepared in the above examples were respectively tested for antagonism of 5-HT at 5-HT3 receptors.
Administration of 5-HT (serotonin) to anesthesized rats via jugular vein induces temporary bradycardia (von Benzold Jarisch Reflex)(A.S. Paintal, Physiol. Rev., 53, 159-227 (1973)).
Thus, rats were anesthesized with urethane (1 g/kg, i.p.) and recorded for blood pressure and heart rate from left femoral artery. Percent inhibition was calculated from bradycardia induced by 5-HT (30 μg/kg) given 5 min. following intrajugular administration of a compound of the invention, taking the bradycardia induced by the intrajugular administration of 5-HT.
In this test, all of the test compounds were tested in the form of hydrochloride except for the compounds prepared in Example 9. Therefore, concentration of the test drug is expressed in terms of the concentration of the hydrochloride except for the compounds prepared in Example 9.

| Compound | % Inhibition (of bradycardia induced by 5-HT) |
| --- | --- |
| COc1cc(N)ccc1C(=O)OC(C)C1CCCCN1C (single isomer, unassigned) [5 (more polar isomer), 1-(1-Methyl-2-piperidyl)ethyl 2-methoxy-4-aminobenzoate] | 16% |
| COc1cc(N)c(Cl)cc1C(=O)OCC1CCCCN1C (stereo not shown) [Example 6, 1-Methyl-2-piperidylmethyl 2-methoxy-4-amino-5-chlorobenzoate] | 76% |
| CC(OC(=O)c1nn(C)c2ccccc12)C1CCCCN1C (single isomer, unassigned) [1 (less polar isomer), 1-(1-Methyl-2-piperidyl)ethyl 1-methylindazole-3-carboxylate] | 49% |
| CN1CCCCC1COC(=O)c1nn(C)c2ccccc12 (stereo not shown) [Example 2, 1-Methyl-2-piperidylmethyl 1-methylindazole-3-carboxylate] | 34% |
| COc1ccc2ncc(C(=O)OCC3CCCCN3C)cc2c1 (stereo not shown) [Example 3] | 26% |
| COc1cc(N)c(Cl)cc1C(=O)OC(C)C1CCCCN1C (single isomer, unassigned) [7 (less polar isomer), (1-Methyl-Z-piperidyl)ethyl 2-methoxy-4 amino-5-chlorobenzoate] | 50% |
| Cn1nc(C(=O)OCC2CCCC[N+]2(C)C)c2ccccc21 (stereo not shown) [Example 9, 1,1-Dimethyl-2-(1-methyl-3-indazolylcarboxymethyl)-piperidinium iodide] | 58% |
